Experimental findings from patent publication US10702527B2, “Combination therapy of transcription inhibitors and kinase inhibitors” (Dana-Farber Cancer Institute, Inc., priority 2015, dated 2020) are described below.

For assay [1], the system named is RT112 bladder carcinoma cells (FGFR3-dependent). The assay is described as follows: Colony formation assay in RT112 cells. Format: cell-based, human. The conditions noted are these: for colony formation: 4 weeks, crystal violet staining, relative to control; for colony formation, transcription inhibitor alone or in combination with BGJ398: one week, 24-well plate (FIG. 35). From the text: Media (and drug) were replaced weekly.

The subject of assay [2] is gene expression in RT112 cells. As to the kind of experiment: RNA-Seq gene expression in RT112 cells. The conditions noted are these: for gene expression (transcriptional programs) by RNAseq: BGJ398 1 μM, THZ1 100 nM, one or seven days. Format: cell-based, human.
Method: (§3) RNA was isolated from untreated RT112 cells and RT112 cells treated with 1 μM BGJ398, 100 nM THZ1, or combination treatment with THZ1 plus BGJ398, and similarly, untreated PC9 cells and PC9 cells treated with 1 μM erlotinib, 100 nM THZ1, or THZ1 plus erlotinib. Both cell lines were harvested at two time-points: following one day or seven days of treatment. Cell number was determined and total RNA was isolated using the RNeasy micro kit (Qiagen). Ambion® ERCC RNA Spike-In Mix (Life technology) was added to total RNA. cDNA libraries were prepared using the NEBNext® Ultra™ RNA Library Prep Kit for Illumina (New England Biolabs) according to the manufacturer's instructions. Library integrity was assessed on an Agilent 2100 Bioanalyzer (Agilent). Sequencing was performed on the Hiseq 2000 platform (Illumina) to a minimum depth of 30 million reads per sample.
(§4) QC-passed reads were aligned to the human reference genome (hg19) using PRADA.^46 Transcript per million (TPM) values were determined using RSEM.^47 TPM values were normalized with the voom transformation.^48 Expression changes for each gene in treated cells compared to untreated controls was determined using the limma package^49 as log 2-transformed fold change and a multiple-testing adjusted p-value. Heatmap visualization was performed using R. Log 2-transformed fold changes were not scaled and were colored on a blue-red scale.
(§5) Differentially expressed genes (defined as log 2-fold change value greater than 1.5 or less than −1.5, and p-value less than 0.01) were input into Ingenuity Pathway Analysis (www.ingenuity.com), to identify a) enriched pathways, 2) upstream regulators, andd 3) downstream effectors. […] We considered an activation z-score of greater than [2] to be activated, and less than [−2] to be inhibited. Gene ontology term (GO-term) enrichment analysis was performed using the Database for Annotation, Visualization and Integrated Discovery (DAVID) v6.7 (david.abcc.ncifcrf.gov/).
The test system of assay [3] is H3K27Ac enhancer signal in RT112 cells. As to the kind of experiment: H3K27Ac ChIP-Seq in RT112 cells. Particulars: seven days of treatment, vs DMSO. Format: cell-based, human. The procedure: RT112 and PC9 cells treated for seven days with vehicle, 1 μM BGJ398 and erlotinib (respectively), 100 nM THZ1, or BGJ398/erlotinib in combination with THZ1. H3K27Ac ChIP-Seq was performed using Abcam antibody (cat # AB4729, lot # GR183922-1) as previously described,^8 with minor modifications (cells were crosslinked for 20 min, Dynal magnetic beads (Sigma) were bound with 10 μg of the indicated antibody).
Illumina sequencing libraries were generated and data was processed as described elsewhere.^50 In brief, libraries were generated for ChIP samples following the Illumina TruSeq™ DNA Sample Preparation v2 kit protocol with minor changes. All ChIP-Seq data sets were aligned using bowtie 1.0.1 to build […] of the human genome with -p 4—best -k 2 -m 2—sam -1 40. Wiggle files for gene tracks were created using Macs 1.4.2 with options -w -S -space=50 to count reads in 50 bp bins.
Regions enriched in H3K27Ac were identified using SICER^51 with corresponding input DNA control, and parameters -t 1 (max 1 read per position), -w 200 (window size 200), -i 150 (fragment size), -g 200 (gap size 200; 1 window), -t 0.74 (interrogable genome fraction), -e 200 (e-value), -p 1e-9 (significance p value cutoff). […]
Density of H3K27Ac ChIP-Seq signal (FIG. 51F) was calculated using bamToGFF (github.com/BradnerLab/pipeline). […]

A further assay has as its system RT112 cells. As to the kind of experiment: Resistance emergence in RT112 cells under BGJ398 treatment (FIG. 1). Format: cell-based, human. From the text:
One mechanism of resistance may be through the upregulation of NRG1 due to signaling via ERBB2/ERBB3 and is rapid (a matter of days) and reversible (Wang et al., Oncogene, 2015, 34(17):2167-77). The resistance may also be associated with EMT.

Assay [4] relates to signaling pathways in PC9 cells. The assay is described as follows: Western blot / immunoblot of signaling pathways in PC9 cells. Format: cell-based. The conditions noted are these: 24 hours, erlotinib 1 μM, THZ1 100 nM. The procedure: (§1) Cells were lysed in RIPA buffer (Roche) containing protease inhibitors (Roche) and Phosphatase Inhibitor Cocktails I and II (CalBioChem). Protein concentrations were determined using a Bradford assay (Bio-Rad). Proteins were separated by SDS gel electrophoresis using NuPAGE 4-12% Bis-Tris gels (Life Technologies) in MOPS buffer. Resolved protein was transferred to nitrocellulose membranes, blocked in 10% milk and probed with primary antibodies recognizing EGFR (2232S), p-EGFR (2234S), FGFR3 (4574S), p-FGFR (3471S), HER2/ERBB2 (2165), p-ERBB2 (2243S), STAT1 (9172), p-STAT1 (9167), STAT3 (4904S), p-STAT3 (9145S), AKT (9272S), p-AKT (4060P), ERK (4695S), p-ERK (4370S), FRA1 (5281S), CDK12 (11973) (all from Cell Signaling Technology), CDK7 (sc-723, Santa Cruz), actin (A5441, Sigma-Aldrich) and vinculin (V9131, Sigma-Aldrich) in 5% milk or 3% bovine serum albumin as recommended by the manufacturer. After incubation with the appropriate secondary antibody (Pierce anti-mouse IgG/IgM (31444, Thermo Scientific) and anti-rabbit IgG (31460, Thermo Scientific)), blots were imaged on film.
Western blots were used to characterize the signaling pathways in selected cell lines. The assays were performed at 24 hours under the following conditions: untreated, treated with 1 μM erlotinib, treated with 100 nM THZ1, or treated with a combination of erlotinib and THZ1, in PC9 and RT112 cells. These doses were also used in the colony formation assays and the RNAseq and ChIPseq experiments. […] However, it could be blocking the activation of downstream STAT3 targets. […] FGFR is known to be a bypass mechanism in PC9, but this was not seen with THZ1 treatment or with the combination treatment. […] This is unexpected, given that THZ1 should block CDK7-mediated RNAPII phosphorylation. This may be due to the dose or the time point assayed.
Background: A western blot detects proteins with antibodies after separation by electrophoresis.

In assay [5] the test system is signaling pathways in RT112 cells. The assay is described as follows: Western blot / immunoblot of signaling pathways in RT112 cells. Format: cell-based, human. The conditions noted are these: 24 hours. The procedure:
as §1
Western blots were used to characterize the signaling pathways in selected cell lines. […] These doses were also used in the colony formation assays and the RNAseq and ChIPseq experiments. […] However, it could be blocking the activation of downstream STAT3 targets. […] FGFR is known to be a bypass mechanism in PC9, but this was not seen with THZ1 treatment or with the combination treatment. […] This is unexpected, given that THZ1 should block CDK7-mediated RNAPII phosphorylation. This may be due to the dose or the time point assayed.

Assay [6] concerns signaling pathways in A549 cells. The assay is described as follows: Western blot / immunoblot of signaling pathways in A549 cells. Format: cell-based. Particulars: 24 hours. The procedure: as §1
(§2) These two lines were both shown in Sharma et al. (Cell, 2010, 141(1):69-80) to employ the STAT3 feedback loop. p-ERK was decreased in the combination treatment arm. […] Therefore, there are some generalizable findings across the four lines.

For assay [7], the system named is signaling pathways in H23 cells. The assay is described as follows: Western blot / immunoblot of signaling pathways in H23 cells. Format: cell-based. Particulars: 24 hours. The procedure:
as §1, §2

A further assay has as its system IL-6. As to the kind of experiment: IL-6 in PC9 cell culture supernatants (Luminex cytokine assay, ELISA). Format: cell-based. The conditions noted are these: PC9 cells; erlotinib 1 μM, THZ1 100 nM; 24 and 72 hours. The procedure:
A Luminex Multiplex Custom Cytokine assay was used to assay cytokines in RT112 and PC9 cell culture supernatants treated with vehicle, 1 μM BGJ398 or erlotinib respectively, 100 nM THZ1, or THZ1 in combination with BGJ398 or erlotinib, at 24 and 72 hours. Cytokines assayed for were: CCL2/MCP-1, CCL5/RANTES, CXLC5, IL-1 alpha and beta, IL-2, IL-4, IL-5, IL-6, IL-8, IL-10, IL-17a, GM-CSF, TNF-alpha, VEGF, INF-gamma. IL-6 was also assayed in cell culture supernatants using the Quantikine IL-6 ELISA kit (D6050, R&D Systems) as per the manufacturer's protocol.

Assay [8] deals with gene expression in PC9 cells. The assay is described as follows: RNA-Seq gene expression in PC9 cells. Particulars: erlotinib 1 μM, THZ1 100 nM, one or seven days.
Method: as §3, §4, §5
In assay [9] the test system is EGFR-T790M-L858R; p53-R172H lung tumors. Format: in vivo. Particulars: TLP mice. From the text:
Mice (both male and female) bred to contain conditional EGFR-T790M-L858R lox-stop-lox (LSL) allele and the p53-dominant negative R172H LSL allele to a final genotype of EGFR-T790M-L858R^LSL/−; p53-R172H^LSL/− maintained on a mixed background, were induced at 6 weeks of age with Adenovirus-Cre recombinase by intranasal administration^45 to allow for mediated recombination of lox-stop-lox modified mutant-EGFR and p53 alleles. […] Mice were imaged using a 7 Tesla BioSpec (Bruker Biospin) optimized for image requisition of pulmonary parenchyma and vessels in mice. Animals were anesthetized with 2% isoflurane IsoFlo; Abbott) in 100% oxygen via a nose cone. Respiratory and cardiac gating was applied to minimize motion artifacts during imaging. 24 slices (1 mm) were collected. Tumor volume per animal was quantified manually, based on a minimum of eight consecutive axial image sequences, using the 3D Slicer. […] Investigators were not blinded to group allocation. Mice were imaged biweekly by MRI until end-stage disease to determine tumor volume. Mice weights and signs of toxicity were monitored daily during the course of treatment. End-stage disease was reached when animals acquired clinical symptoms secondary to their lung tumors, in accordance with Dana Farber Cancer Institute Animal Care and Use Committee regulations.

The subject of assay [10] is A549 cells (KRAS-mutant NSCLC). The conditions noted are these: 4 weeks, crystal violet staining. The procedure:
100,000 cells were seeded in 6-well plates, allowed to adhere overnight, and then incubated with media containing vehicle or drug as indicated for 4 weeks. Media (and drug) were replaced weekly. At 4 weeks plates were, fixed with 1% paraformaldehyde, and then stained with 0.1% crystal violet as previously described (medicine.yale.edu/lab/kim/resources/protocols/cell/crystal- violet_stain.aspx) to assess colony formation. Results were quantified using an ImageJ Colony Area PlugIn.^44

Entries after “also recorded” stand apart in the source; their conditions may differ.

Take `CCN1CCN(c2ccc(Nc3cc(N(C)C(=O)Nc4c(Cl)c(OC)cc(OC)c4Cl)ncn3)cc2)CC1` [BGJ398]: the colony formation entry in [1] is listed as “comparable to control”. Besides, the “gene expression (transcriptional programs) by RNAseq” value in [2] is “transcriptionally distinct from the parental population; also recorded: up-regulated the expression of genes involved in pro-survival programs”. Moreover, in [2] (log2-normalized FPKM, two-tailed t-test), the “gene expression of the top 200 up-regulated genes with BGJ398 treatment” value is on record as “significant increase in gene expression”. Moreover, the “H3K27Ac ChIP-Seq signal at enhancers” value in [3] is “significant increase in H3K27Ac signal”. For the same molecule, the resistance emergence result in the assay with RT112 cells is given as “led to resistance emergence”.
For `C[C@H](CCC(=O)O)[C@H]1CC[C@H]2[C@@H]3CC[C@@H]4C[C@H](O)CC[C@]4(C)[C@H]3C[C@H](O)[C@]12C` [DCA], the “colony formation, transcription inhibitor alone or in combination with BGJ398” value in assay [1] is on record as “modest results, even in combination”.
On the same count and under the same terms, then `C=CC(=O)Nc1cccc(Nc2cc(N3CCCCC3CCO)nc3c(CC)cnn23)c1` (stereo not drawn) [E9], with “works as well as THZ1”.
As for `CN(C)C/C=C/C(=O)Nc1ccc(C(=O)Nc2cccc(Nc3ncc(Cl)c(-c4c[nH]c5ccccc45)n3)c2)cc1` [THZ1], the colony formation entry in [1] is “comparable to control”. Besides, the FRA1 protein levels result is on record as “nor did it restore FRA1 levels” in assay [4] and “nor did it restore FRA1 levels” in assay [5] (BGJ398 1 μM, THZ1 100 nM). The RNAPII phosphorylation result in assay [4] is reported as “increase in RNAPII phosphorylation”; in [5] it was “increase in RNAPII phosphorylation”; in assay [6] it was “again increased”; in assay [7] it was “again increased”. In addition, the STAT1 phosphorylation result in [4] is listed as “blocked STAT1 phosphorylation”; in [5] (BGJ398 1 μM, THZ1 100 nM), “blocked STAT1 phosphorylation”. Moreover, the FGFR activation result in [4] (alone or combined) is on record as “not seen; also recorded: blocked”. Further, the “p-STAT3 (STAT3 phosphorylation/activation)” value was “does not inhibit the feedback activation of STAT3; also recorded: not blocking the activation of p-STAT3; also recorded: did not affect the phosphorylation status of STAT3” in assay [4] (alone or combined) and “does not inhibit the feedback activation of STAT3; also recorded: did not affect the phosphorylation status of STAT3; also recorded: not blocking the activation of p-STAT3” in assay [5] (BGJ398 1 μM, THZ1 100 nM, alone or combined). In addition, in assay [5], the ERBB2 activation entry is on record as “blocked ERBB2 activation”. Also, the “IL-6 levels in cell culture supernatants” value with IL-6 is listed as “suppressed the increase in IL-6 levels”. In addition, the “gene expression (transcriptional programs) by RNAseq” value in assay [2] and in assay [8] was “attenuation of these programs” in each case.
Regarding `C=CC(=O)Nc1cccc(Oc2nc(Nc3ccc(N4CCN(C)CC4)cc3OC)ncc2Cl)c1` [WZ4002], the “time to end-stage disease” value in [9] is on record as “end-stage disease by five weeks”. Further, the “tumor response by MRI at two weeks” value in assay [9] (WZ4002 50 mg/kg QD oral gavage) is “initial response”. The “tumor response by MRI at four weeks” value in [9] (WZ4002 50 mg/kg QD oral gavage, THZ1 10 mg/kg BID i.p.) is “rapidly developed resistance and rebounded”.
As for `C[C@@H](Oc1cc(-c2cnn(C3CCNCC3)c2)cnc1N)c1c(Cl)ccc(F)c1Cl` [crizotinib], in assay [10], the colony formation result is given as “ineffective”.
